Molecular target: T1, Recombinant human mPGES-1 (Homo sapiens, UniProt O14684)
T1 construct: made in house; host or cells: CHO cells
T1 sequence (O14684 1-152): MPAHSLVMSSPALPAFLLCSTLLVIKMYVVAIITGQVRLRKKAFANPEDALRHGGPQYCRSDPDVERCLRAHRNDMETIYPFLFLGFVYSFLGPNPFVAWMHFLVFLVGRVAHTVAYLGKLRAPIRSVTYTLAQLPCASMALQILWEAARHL
Assay: In-vitro mPGES-1 inhibitor screening (inhibition of PGE2 formation from PGH2, HTRF detection)
Type: biochemical
Conditions: for inhibition at 1 µM: 1 μM test compound, read-out: Percentage inhibition at 1 μM; for inhibition at 1 µM / inhibition at 10 µM: crude microsomal fraction, 15 μM PGH2; for inhibition at 10 µM: 10 μM test compound, read-out: Percentage inhibition at 10 μM; for IC50: class symbol, concentration response curve
Text: In-Vitro Protocol for Screening of mPGES-1 Inhibitors:
mPGES-1 (microsomal prostaglandin E synthase-1) is a microsomal enzyme that converts endoperoxide substrate PGH2 (prostaglandin H2) to product PGE2 (prostaglandin E2) by isomerization in the presence of reduced glutathione (GSH). mPGES-1 inhibitors were screened by assessing their ability to inhibit formation of PGE2 from PGH2 in presence of mPGES-1 using an anti-PGE2 antibody based detection method. Recombinant human mPGES-1 was generated in-house by expression in CHO cells (Ouellet M et al. (2002), Protein Expression and Purification 26: 489-495). The assay was set up using crude microsomal fractions at protein concentration of 40-60 μg/mL. Test compounds were prepared in 100% dimethyl sulfoxide (DMSO) to obtain 20 mM stock solution and then diluted using assay buffer comprising 0.1 M Potassium phosphate buffer with 2 mM EDTA. The final concentration of DMSO in reaction was 0.5% (v/v). Negative controls were comprised of all assay reagents except the enzyme. Positive controls were comprised of the enzyme reaction in the absence of any inhibitor. Test compounds were incubated for 10 minutes in assay buffer containing 2.5 mM GSH and mPGES-1 enzyme followed by addition of PGH2 at a concentration of 15 μM for 1 minute. The reaction was stopped by addition of Stannous chloride (11 mg/ml) and PGE2 levels were measured (Masse F et al. (2005), Journal of Biomolecular Screening 10(6) 599-605., Goedken R E et al. (2008), Journal of Biomolecular Screening 13(7): 619-625) by HTRF kit (CisBio)).
Inhibition of mPGES-1 enzyme activity was measured using the percent of reaction occurring in the positive control. Concentration response curves were plotted using percent inhibition of maximum enzyme reaction. The IC50 value was calculated from the concentration response curve by nonlinear regression analysis using GraphPad PRISM software.

## CC(C)(C)C(=O)NCc1ccc(Cl)c(C(=O)Nc2cccc3c(Oc4cccc(C(F)(F)F)c4)ccnc23)c1F [Example-18, 6-Chloro-2-fluoro-3-(pivalamidomethyl)-N-(4-(3-(trifluoromethyl)phenoxy)quinolin-8-yl)benzamide]
  inhibition at 1 µM: 100%
  inhibition at 10 µM: 99.9%
  IC50: < 0.05 µM

## CC(C)(C)C(=O)NCc1ccc(Cl)c(C(=O)Nc2ccnc3c(Nc4cccc(C(F)(F)F)c4)cccc23)c1 [Example-19, 2-Chloro-5-(pivalamidomethyl)-N-(8-((3-(trifluoromethyl)phenyl)amino)quinolin-4-yl)benzamide]
  inhibition at 1 µM: 97.7%
  inhibition at 10 µM: 98.2%
  IC50: < 0.05 µM

## CC(C)(C)C(=O)NCc1ccc(Cl)c(C(=O)Nc2cccc3c(O[C@H]4CC[C@@H](C(F)(F)F)CC4)ncnc23)c1F [Example-26, 6-Chloro-2-fluoro-3-(pivalamidomethyl)-N-(4-(((1s,4s)-4-(trifluoromethyl)cyclohexyl)oxy)quinazolin-8-yl)benzamide]
  inhibition at 1 µM: 93.4%
  inhibition at 10 µM: 93.1%
  IC50: < 0.05 µM

## CC(C)(C)C(=O)NCc1ccc(Cl)c(C(=O)Nc2cccc3c(Oc4ccc(C(F)(F)F)cc4)ccnc23)c1F [Example-53, 6-Chloro-2-fluoro-3-(pivalamidomethyl)-N-(4-(4-(trifluoromethyl)phenoxy)quinolin-8-yl)benzamide]
  inhibition at 1 µM: 98.3%
  inhibition at 10 µM: 98.3%
  IC50: < 0.05 µM

## CC(C)(C)C(=O)NCc1ccc(Cl)c(C(=O)Nc2cccc3c(Nc4cccc(C(F)(F)F)c4)nccc23)n1 [Example-2, 3-Chloro-6-(pivalamidomethyl)-N-(1-((3-(trifluoromethyl)phenyl)amino)isoquinolin-5-yl)picolinamide]
  inhibition at 1 µM: 95.8%
  inhibition at 10 µM: 97.2%
  IC50: < 0.05 µM

## CC(C)(C)C(=O)NCc1ccc(Cl)c(C(=O)Nc2cccc3c(Oc4cc(C(F)(F)F)ccc4F)ccnc23)c1F [Example-40, 6-Chloro-2-fluoro-N-(4-(2-fluoro-5-(trifluoromethyl)phenoxy)quinolin-8-yl)-3-(pivalamidomethyl)benzamide]
  inhibition at 1 µM: 99.3%
  inhibition at 10 µM: 98.5%
  IC50: < 0.05 µM

## CC(C)Nc1ncnc2c(NC(=O)c3c(Cl)ccc(CNC(=O)C(C)C)c3F)cccc12 [Example-77, 6-Chloro-2-fluoro-3-(isobutyramidomethyl)-N-(4-(isopropylamino)quinazolin-8-yl)benzamide]
  inhibition at 1 µM: 78.4%
  inhibition at 10 µM: 99.9%
  IC50: < 0.05 µM

## CC(C)(C)C(=O)NCc1ccc(Cl)c(C(=O)Nc2cccc3c(Nc4ccc(F)c(C(F)(F)F)c4)ncnc23)c1F [Example-25, 6-Chloro-2-fluoro-N-(4-((4-fluoro-3-(trifluoromethyl)phenyl)amino)quinazolin-8-yl)-3-(pivalamidomethyl)benzamide]
  inhibition at 1 µM: 97.7%
  inhibition at 10 µM: 98.3%
  IC50: < 0.05 µM

## CC(C)C(=O)NCc1ccc(Cl)c(C(=O)Nc2cccc3c(NCC(F)(F)F)ncnc23)c1F [Example-73, 6-Chloro-2-fluoro-3-(isobutyramidomethyl)-N-(4-((2,2,2-trifluoroethyl)amino)quinazolin-8-yl)benzamide]
  inhibition at 1 µM: 88.7%
  inhibition at 10 µM: 93.2%
  IC50: < 0.05 µM

## CC(C)(C)C(=O)NCc1ccc(Cl)c(C(=O)Nc2cccc3c(Nc4ccc(C(F)(F)F)nc4)ncnc23)c1F [Example-30, 6-Chloro-2-fluoro-3-(pivalamidomethyl)-N-(4-((6-(trifluoromethyl)pyridin-3-yl)amino)quinazolin-8-yl)benzamide]
  inhibition at 1 µM: 97.4%
  inhibition at 10 µM: 99.1%
  IC50: < 0.05 µM

## CC(C)Nc1ncnc2c(NC(=O)c3c(Cl)ccc(CNC(=O)C(C)(C)C)c3F)cccc12 [Example-64, 6-Chloro-2-fluoro-N-(4-(isopropylamino)quinazolin-8-yl)-3-(pivalamidomethyl)benzamide]
  inhibition at 1 µM: 90.6%
  inhibition at 10 µM: 94.5%
  IC50: < 0.05 µM

## CC(C)(C)C(=O)NCc1ccc(Cl)c(C(=O)Nc2cccc3c(Nc4cccc(C(F)(F)F)c4)ncnc23)n1 [Example-8, 3-Chloro-6-(pivalamidomethyl)-N-(4-((3-(trifluoromethyl)phenyl)amino)quinazolin-8-yl)picolinamide]
  inhibition at 1 µM: 99%
  inhibition at 10 µM: 98%
  IC50: < 0.05 µM

## CC1(C)CCC(Nc2ncnc3c(NC(=O)c4c(Cl)ccc(CNC(=O)C(C)(C)C)c4F)cccc23)CC1 [Example-22, 6-Chloro-N-(4-((4,4-dimethylcyclohexyl)amino)quinazolin-8-yl)-2-fluoro-3-(pivalamidomethyl)benzamide]
  inhibition at 1 µM: 100%
  inhibition at 10 µM: 99.6%
  IC50: < 0.05 µM

## CC(C)(C)Nc1ncnc2c(NC(=O)c3ccc(F)c(CNC(=O)C(C)(C)C)c3Cl)cccc12 [Example-72, N-(4-(tert-Butylamino)quinazolin-8-yl)-2-chloro-4-fluoro-3-(pivalamidomethyl)benzamide]
  inhibition at 1 µM: 86.8%
  inhibition at 10 µM: 98.7%
  IC50: 0.05 to 0.1 µM

## CC1(C)CCC(Oc2ncnc3c(NC(=O)c4cc(CNC(=O)C(C)(C)C)ccc4Cl)cccc23)CC1 [Example-15, 2-Chloro-N-(4-((4,4-dimethylcyclohexyl)oxy)quinazolin-8-yl)-5-(pivalamidomethyl)benzamide]
  inhibition at 1 µM: 98.1%
  inhibition at 10 µM: 97.5%
  IC50: < 0.05 µM

## CC(C)(C)C(=O)NCc1ccc(Cl)c(C(=O)Nc2cccc3c(Oc4ccc(F)c(C(F)(F)F)c4)ncnc23)c1F [Example-52, 6-Chloro-2-fluoro-N-(4-(4-fluoro-3-(trifluoromethyl)phenoxy)quinazolin-8-yl)-3-(pivalamidomethyl)benzamide]
  inhibition at 1 µM: 94.5%
  inhibition at 10 µM: 95.3%
  IC50: < 0.05 µM

## CCOc1ncnc2c(NC(=O)c3c(Cl)ccc(CNC(=O)C(C)(C)C)c3F)cccc12 [Example-43, 6-Chloro-N-(4-ethoxyquinazolin-8-yl)-2-fluoro-3-(pivalamidomethyl)benzamide]
  inhibition at 1 µM: 98.4%
  inhibition at 10 µM: 99.9%
  IC50: < 0.05 µM

## CC(C)C(=O)NCc1cnc(C(F)F)c(C(=O)Nc2cccc3c(Oc4ccc(F)c(C(F)(F)F)c4)ccnc23)c1 [Example-80, 2-(Difluoromethyl)-N-(4-(4-fluoro-3-(trifluoromethyl)phenoxy)quinolin-8-yl)-5-(isobutyramidomethyl)nicotinamide]
  inhibition at 1 µM: 99.7%
  inhibition at 10 µM: 98.5%
  IC50: < 0.05 µM

## CC(C)(C)C(=O)NCc1ccc(Cl)c(C(=O)Nc2cccc3c(Oc4cc(C(F)(F)F)ccc4F)ncnc23)c1F [Example-28, 6-Chloro-2-fluoro-N-(4-(2-fluoro-5-(trifluoromethyl)phenoxy)quinazolin-8-yl)-3-(pivalamidomethyl)benzamide]
  inhibition at 1 µM: 99.1%
  inhibition at 10 µM: 100%
  IC50: < 0.05 µM

## Cc1nc(NC2CCC(F)(F)CC2)c2cccc(NC(=O)c3c(Cl)ccc(CNC(=O)C(C)(C)C)c3F)c2n1 [Example-60, 6-Chloro-N-(4-((4,4-difluorocyclohexyl)amino)-2-methylquinazolin-8-yl)-2-fluoro-3-(pivalamidomethyl)benzamide]
  inhibition at 1 µM: 86.5%
  inhibition at 10 µM: 91.7%
  IC50: > 0.1 µM

Source: patent US9006257B2, “Bicyclic compounds as mPGES-1 inhibitors” (Glenmark Pharmaceuticals S.A., priority 2012, dated 2015)
